Consider five compounds from patent US12201619B2, “Compounds and methods for use in the treatment of microglia-mediated disorders” (NSC Therapeutics GmbH, priority 2018, dated 2025).

Where a chain is given by its changes, count along the chain named. Entries after “also recorded” stand apart in the source; their conditions may differ.

The subject of data set [1] is TREM2 (sTREM2, tTREM2) in primary microglia. Kind of data set: Soluble and total TREM2 levels (ELISA) in primary microglia cultures. It is filed as cell-based, mouse. The following applies: for sTREM2 levels in medium: normalized to PMA 1 μM. As for the experimental part: Primary microglia were isolated from C57BL6 pups (P4-6). Mouse brains were prepared by removing the cerebellum and the meninges. Brain tissue was dissected and single cell suspension was sorted via CD11b Microbeads (Milteny Biotec) to obtain primary microglia. Cells were plated at 4×10^5 cell/ml in 24 well plates and cultured for 24 hours in DMEM supplemented with 10% FBS and 1% Penicillin/Streptomycin.
Mouse primary microglia were prepared from mice postnatal day 4-6 according to standard protocols (Neuronal Tissue Dissociation Kit (P), 130-092-628 and CD11b Microbeads, 130-093-634; Miltenyi Biotec 5 GmbH, Germany) and seeded in 24-well plates at a density of 4×10^5 cells/well. After one day, cell medium was removed and cells were washed once with PBS. Subsequently, cell were treated with compound NSC001 (0-2000 μM) in FBS-free DMEM for 1 or 24 hours. Termination of the assay was carried out by collecting the media and concomitant concentration via centrifugal filter units (Amicon, Z648027-24EA, Sigma 10 Aldrich, Ireland). Cell lysis was performed by adding RIPA lysis buffer (RIPA buffer, R0278, Sigma-Aldrich Co LLC, USA) followed by agitating the cells at 4° C. for 30 min. Primary microglia cell lysates and concentrated cell medium were analyzed for soluble TREM2 (sTREM2; FIG. 3A,B) and total TREM2 (tTREM2; FIG. 3C,D) levels by ELISA (CSBEL024405MO, Cusabio Life Science, China).

Data set [2] addresses T1, human M1 mAChR (Homo sapiens, UniProt P11229).
T1 sequence (P11229 1-460): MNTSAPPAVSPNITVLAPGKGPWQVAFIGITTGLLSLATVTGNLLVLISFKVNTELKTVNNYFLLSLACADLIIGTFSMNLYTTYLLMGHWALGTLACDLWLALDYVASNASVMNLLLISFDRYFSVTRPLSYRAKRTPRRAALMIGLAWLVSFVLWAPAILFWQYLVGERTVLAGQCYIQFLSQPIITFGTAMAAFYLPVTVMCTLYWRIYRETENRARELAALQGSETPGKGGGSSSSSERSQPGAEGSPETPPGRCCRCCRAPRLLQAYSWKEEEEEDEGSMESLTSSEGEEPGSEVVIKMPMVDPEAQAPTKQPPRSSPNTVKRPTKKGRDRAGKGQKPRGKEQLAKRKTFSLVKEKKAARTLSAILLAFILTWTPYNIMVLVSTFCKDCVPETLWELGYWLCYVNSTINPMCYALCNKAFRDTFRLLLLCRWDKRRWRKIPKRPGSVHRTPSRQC
Kind of data set: Phosphoinositide (PI) hydrolysis in CHOM1 cells. The following applies: for Emax at 1000 µM: read-out: PI hydrolysis maximal response relative to CCh. It is filed as cell-based. Also on record: expressed in transfected cells; host or cells: CHO (Chinese Hamster Ovary) cells, CHOM1, kept under G418. As for the experimental part:
(§1) Rat pheochromocytoma cells (PC12) transfected with rat M1 muscarinic receptor (PC12M1) or CHOM1 cells were seeded in 24-well plates at a density of 4-8×10^5 cells/well. A day later, a fresh growth medium containing 1 μCi/ml [^3H]inositol (myo-[2-^3H(N)] 22 Ci/mmol; purchased from NEN, Boston, MA) was added for 18-24 h (overnight). Then, the medium was removed and the cells were washed twice followed by pre-incubation (10 min) with serum-free medium containing 20 mM Hepes pH 7.4 and 10 mM LiCl. […] Basal activity was determined in cells that were incubated in parallel without the tested compounds. Termination of the assay was carried out by aspirating the media and adding 0.5 ml 2% trichloroacetic acid (TCA) followed by agitating the cells in the cold for 30 min. The TCA extracts were transferred to anion-exchange columns, washed five times with 5 mM inositol, once with 5 ml 5 mM Na2B4O7 in 60 mM formic acid, and the total IPs were eluted with 3 ml 1 M NH4COOH in 0.1 M formic acid. The effluent was collected into scintillation vials and the radioactivity was measured using liquid scintillation counter, 1214 Rackbeta LKB Wallac.

Data set [3] deals with T1, human M1 mAChR. Description: cell-based. Particulars: for calcium mobilization response relative to CCh: CHOM1 cells, 50 μM compound. The protocol:
Cells were routinely cultured in Dulbecco's Modified eagle medium (Gibco, UK) supplemented with 10% fetal bovine serum (FBS), 1×MEM non-essential amino-acid, […] Glutamine, 100μ/ml Penicillin, 0.1 mg/ml Streptomycin, 25 μg/ml Amphotericin B and 100 μg/ml G418 (Biological industries, Israel). Cells were kept in a humidified atmosphere at 37° C. in 5% CO2 and were passaged twice weekly by 2.5 mg/ml trypsin-EDTA (0.02%) solution (Biological industries, Israel) and re-suspended in fresh media.
Calcium fluorescence measurements were performed using a NOVOstar plate reader with an injector and a pipetting system (BMG Labtech, Ortenberg, Germany). At the day before the experiment Chinese Hamster Ovary (CHO) cells expressing human M1 mAChR subtypes (CHOM1) were harvested and rinsed with culture medium (see section “cell culture”, supra) without Phenol red and evenly plated into black-wall clear optical bottom 96-well plate (Nunc, Rochester NY, USA) at a density of 40,000 cells/well. Growth medium was removed and 80 μl of loading buffer, containing 2.5 mM probenecid, was carefully added (loading buffer prepared according to FLUO-4 NW calcium assay kit manual). The cell plate was incubated at 37° C. for 30 minutes; then at room temperature for an additional 30 minutes. EGTA (10 μl of 50 mM dissolved in HBSS) was added automatically to each well using the NOVOstar injector system followed by shaking of 1 minute (1 mm width, 600 rpm) and then incubated for another 10 minutes. HBSS alone or test compounds dissolved in HBSS were then added (10 μl) sequentially into separate wells using the NOVOstar robotic pipettor system. Fluorescence intensity was measured at 0.5 second intervals, for 30 second for each well, using an excitation wavelength of 485 nm (bandwidth 10 nm) and emission of 520 nm (bandwidth 10 nm), cut-off 515 nm. All assays were carried out in triplicates in three independent experiments. Competition curves and EC50 values were derived using the GraphPad Prism software program, version 3.0.

In another data set the target is T2, M1 receptor (Homo sapiens, UniProt P11229).
T2 sequence (P11229 1-460): T1 sequence (P11229 1-460)
Particulars: in vitro; cited from earlier work.

In data set [4] the test system is human blood-derived macrophages. Kind of data set: Cell viability (PrestoBlue) of blood-derived human macrophages. It is filed as cell-based. Particulars: for cell viability in regards to medium control: 0-24 h, 1-2000 μM for NSC001 and AF102B; for persistence of the cell viability effect: after 24 hours of treatment. The protocol: Human blood-derived macrophages were isolated from buffy coat via standard protocols (Monocyte isolation Kit, 130091153, Miltenyi Biotec GmbH, Germany) and differentiated for 9 days in M-CSF medium (Ser. No. 12/065,074, Thermo Fisher, Switzerland,) supplemented with 125 ng/ml human GM-CSF (130093864, Miltenyi Biotec GmbH, Germany) to induce M1 macrophage differentiation. Upon differentiation, cells were harvested and re-seeded at 1 Mio cells per 24-well. […] Cell viability was detected by absorbance measurements utilizing the PrestoBlue colorimetric assay (PrestoBlue Cell Viability Reagent, A13261, Thermo Fisher, Switzerland). Cell viability was assessed directly after compound application at 0 h and after 1 h, 3 h and 24 h.

For a further data set, the system named is AD patients. Particulars: cited from earlier work.
The conditions of data set [5]: dry storage conditions; cited from earlier work.
For a further data set, the system named is 3×Tg-AD mice. The following applies: cited from earlier work.
Data set [6] has as its target T3, rat M1 muscarinic receptor (Rattus norvegicus, UniProt P08482).
T3 construct: expressed in transfected cells; host or cells: PC12 rat pheochromocytoma cells (PC12M1)
T3 sequence (P08482 1-460): T1 sequence (P11229 1-460) with A5V, T254S, P309S, R320K, A337G, I413V
Description: Phosphoinositide (PI) hydrolysis in PC12M1 cells. It is filed as cell-based. The protocol: as §1

The mark [7] stands for this setting: 24 hours treatment, hydrochloride.
[8] abbreviates: 24 hours treatment, listed as AF267B.

As for `C[C@@H]1O[C@@]2(CS1)CN1CCC2CC1.Cl` (racemic) [AF102B, cis-2-Methylspiro[1,3-oxathiolane-5,3′-quinuclidine] hydrochloride, reference compound], in data set [1] (setting [7]), the “sTREM2 levels in medium” value is recorded as “capable of inducing sTREM2 levels; also recorded: significantly enhances; also recorded: significantly increases” and the “cellular tTREM2 levels” value was “not affected; also recorded: unaffected; also recorded: unaltered”. Further, the “concentration at which the compound is active” value in data set [1] (features (i) to (iii): sTREM2 secretion, calcium mobilization and/or PI hydrolysis) was 10 to 100 µM. Also, the Emax at 1000 µM on human M1 mAChR [2] was determined as 43%. On human M1 mAChR [3], a half-maximal effect (EC50) was put at 1680 ± 330 nM and the “calcium mobilization response relative to CCh” value is 101%. On M1 receptor, the Aβ levels result was “decrease”, the Aβ-induced neurotoxicity entry is recorded as “block”, the tau hyperphosphorylation result is given as “decrease” and the αAPPs entry is reported as “elevate”. Further, the “cell viability in regards to medium control” value (“cell viability in regards” below) in data set [4] (hydrochloride) was “increased; also recorded: increase in viability”. Also, the “persistence of the cell viability effect” value in [4] is on record as “persisted”. Besides, in the data set with AD patients, the “levels of Aβ in the CSF” value is given as “significantly decreased”.
With `CCO` [Ethanol], the “cell viability in regards” value in [4] is on record as “reduced cell viability; also recorded: rapidly decreases cell viability”.
On to `CCC1SC2(CCN(C)CC2)NC1=O` (stereo not shown) [Form II], for which the “stability of the crystalline form” value in data set [5] is “highly stable under dry storage conditions for at least two years”.
Regarding `CC[C@@H]1SC2(CCN(C)CC2)NC1=O` [NSC001, (S)-2-ethyl-8-methyl-1-thia-4,8-diaza-spiro[4.5]decan-3-one], in data set [1] (1 hour treatment), the “cellular tTREM2 levels” value is reported as “remained constant; also recorded: no effect” and the “sTREM2 levels in medium” value was “no alteration detected; also recorded: no effect”. For the same compound, the “concentration able to increase sTREM2 levels comparable to PMA” value in data set [1] (24 h, PMA 1 μM) is 1 µM. In addition, the “further increase in sTREM2 exceeding the levels upon PMA treatment (1 μM)” value in data set [1] (24 h, higher concentrations 100-2000 μM) was “not observed”. Also, in data set [1] (24 hours treatment), the “cellular tTREM2 levels” value is recorded as “remain constant” and the “sTREM2 levels in medium” value is recorded as “significant increase”. Also, in data set [1] (setting [8]), the “sTREM2 levels in medium” value is “significantly increases” and the “cellular tTREM2 levels” value is reported as “unaltered”. For the same compound, the “cellular tTREM2 levels” value in data set [1] (24 hours treatment, listed as NSC0001) is “not affected”. For the same compound, the “concentration at which the activity of features (i) to (iii) is displayed” value in [1] (sTREM2 secretion, calcium mobilization and/or PI hydrolysis) lay in the range of 1 to 5 µM. The same compound returned an EC50 at human M1 mAChR [2] (CHOM1 cells) of 19 µM. For the same compound, the Emax at 1000 µM at human M1 mAChR [2] was 63 ± 1%. In addition, on human M1 mAChR [3], it took 1840 ± 390 nM to reach a half-maximal effect (EC50) and the “calcium mobilization response relative to CCh” value came to 113%. Besides, the spatial memory entry with 3×Tg-AD mice was “improve spatial memory”. The “Aβ and tau pathologies” value in the data set on 3×Tg-AD mice (hippocampus and cortex) was “reduced”. At M1 receptor, the Aβ levels result is “decrease”, the Aβ-induced neurotoxicity result was “block”, the tau hyperphosphorylation result is on record as “decrease” and the αAPPs result is on record as “increase”. Moreover, in data set [4], the “cell viability in regards” value is “increased; also recorded: increase in viability” and the “persistence of the cell viability effect” value is given as “persisted”. The “PI hydrolysis / M1 mAChR activation” value in data set [6] is “efficacious; also recorded: efficiently induces PI hydrolysis”.
For `CCCCCCCCCCCCCC(=O)O[C@@H]1[C@@H](C)[C@@]2(O)[C@@H](C=C(CO)C[C@]3(O)C(=O)C(C)=C[C@@H]23)[C@@H]2C(C)(C)[C@]12OC(C)=O` [PMA, Phorbol myristate acetate], in data set [4], the “cell viability in regards” value was “increased” and the “persistence of the cell viability effect” value is “reversed to baseline”.
